Experimental findings from patent publication US9334264B2, “NAMPT inhibitors” (AbbVie Inc., priority 2012, dated 2016) are described below.

Structures are written as SMILES.

Assay [1] concerns the target NAMPT (human, recombinant, C-terminally His-tagged) (Homo sapiens, UniProt P43490). Briefly: Time-Resolved Fluorescence Resonance Energy Transfer (TR-FRET) Binding Assay of NAMPT. The note with it: absence of substrates; 6.8 nM NAMPT, 200 nM probe, equilibrated 3 hours. How it is done: Determination of the utility of compounds having Formula (I) as binders to and inhibitors of NAMPT was performed using Time-Resolved Fluorescence Resonance Energy Transfer (TR-FRET) binding assays.
Time-Resolved Fluorescence Resonance Energy Transfer (TR-FRET) Binding Assay of NAMPT
Test compounds were serially diluted (typically 11 half log dilutions) in neat DMSO to 50× final concentrations prior to dilution with assay buffer (50 mM HEPES (NaOH), pH 7.5, 100 mM NaCl, 10 mM MgCl2, 1 mM DTT, 1% Glycerol) to 3× and 6% DMSO. Six μL were transferred to 384-well low-volume plates (Owens Corning #3673). To this, 12 μL of a 1.5× solution containing enzyme, probe and antibody were added. Final concentrations in the 18 μL reactions were 1× assay buffer, 2% DMSO, 6.8 nM NAMPT (human, recombinant, C-terminally His-tagged), 200 nM probe (a potent nicotinamide-competitive inhibitor conjugated to Oregon Green 488) and 1 nM Tb-anti-His antibody (Invitrogen #PV5895). Reactions were equilibrated at room temperature for 3 hours prior to reading on an Envision multi-label plate reader (Perkin Elmer; Ex=337 nm, Em=520 and 495 nm). Time-resolved FRET ratios (Em520/Em495) were normalized to controls, plotted as a function of compound concentration and fit with the four-parameter logistic equation to determine IC50s.
On the technique in general: TR-FRET usually uses a lanthanide donor and a delayed reading to cut background.

The next assay has as its target NAMPT (Homo sapiens, UniProt P43490). Briefly: Time-Resolved Fluorescence Resonance Energy Transfer (TR-FRET) Binding Assay of NAMPT with PRPP. Conditions: 200 μM PRPP and 2.5 mM ATP; 2 nM NAMPT, 2 nM probe, equilibrated 16 hours. How it is done:
Time-Resolved Fluorescence Resonance Energy Transfer (TR-FRET) Binding Assay of NAMPT with PRPP
Compound handling and data processing were identical to the assay in the absence of substrates (above). Final concentrations were 1× assay buffer, 2% DMSO, 2 nM NAMPT, 2 nM probe, 1 nM Tb-anti-His antibody (Invitrogen #PV5895), 200 μM PRPP and 2.5 mM ATP. Reactions were equilibrated for 16 hours prior to measurement to allow for potential enzymatic modification of test compounds.

Chain of NAMPT (human, recombinant, C-terminally His-tagged) (P43490 whole entry): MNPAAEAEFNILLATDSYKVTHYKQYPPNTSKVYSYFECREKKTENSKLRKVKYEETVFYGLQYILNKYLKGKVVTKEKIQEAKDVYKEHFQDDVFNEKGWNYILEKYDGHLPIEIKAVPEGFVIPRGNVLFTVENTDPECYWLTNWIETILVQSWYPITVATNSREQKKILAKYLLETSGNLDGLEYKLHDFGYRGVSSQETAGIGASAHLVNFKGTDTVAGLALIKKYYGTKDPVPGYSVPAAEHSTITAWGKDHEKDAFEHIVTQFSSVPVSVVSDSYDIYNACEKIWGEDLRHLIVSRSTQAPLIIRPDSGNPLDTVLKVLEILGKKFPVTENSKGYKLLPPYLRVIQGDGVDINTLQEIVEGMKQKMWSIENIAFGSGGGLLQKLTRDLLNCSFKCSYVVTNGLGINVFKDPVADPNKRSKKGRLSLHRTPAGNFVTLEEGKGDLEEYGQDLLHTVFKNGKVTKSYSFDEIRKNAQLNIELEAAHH
Chain of NAMPT (P43490 whole entry): as above

With `O=C(NCCCn1ccnc1)c1cnc(N(Cc2ccc(F)cc2)C(=O)CN2CCC(O)CC2)s1` [Example 29, 2-{(4-fluorobenzyl)[(4-hydroxypiperidin-1-yl)acetyl]amino}-N-[3-(1H-imidazol-1-yl)propyl]-1,3-thiazole-5-carboxamide], the IC50 (usually the concentration that inhibits the measured activity by half) in assay [1] is > 10000 nM; at NAMPT it was 2.16 nM.

As to `CN1CCN(CC(=O)N(Cc2ccc(F)cc2)c2ncc(C(=O)NCCCn3ccnc3)s2)CC1` [Example 30, 2-{(4-fluorobenzyl)[(4-methylpiperazin-1-yl)acetyl]amino}-N-[3-(1H-imidazol-1-yl)propyl]-1,3-thiazole-5-carboxamide], the IC50 in assay [1] is > 10000 nM; at NAMPT it was 2.29 nM.

With `CC(C)N1CCN(CC(=O)N(Cc2ccc(F)cc2)c2ncc(C(=O)NCCCn3ccnc3)s2)CC1` [Example 31, 2-[(4-fluorobenzyl){[4-(propan-2-yl)piperazin-1-yl]acetyl}amino]-N-[3-(1H-imidazol-1-yl)propyl]-1,3-thiazole-5-carboxamide], the values for the half-maximal inhibitory concentration (IC50) (in assay [1]; on NAMPT) were 3600 nM and 0.893 nM, respectively.

As for `O=CN1CCN(CC(=O)N(Cc2ccc(F)cc2)c2ncc(C(=O)NCCCn3ccnc3)s2)CC1` [Example 32, 2-{(4-fluorobenzyl)[(4-formylpiperazin-1-yl)acetyl]amino}-N-[3-(1H-imidazol-1-yl)propyl]-1,3-thiazole-5-carboxamide], the IC50 was > 10000 nM in assay [1] and 1.33 nM on NAMPT.

With `O=C(NCCCn1ccnc1)c1cnc(N(Cc2ccc(F)cc2)C(=O)CN2CCN3CCCC3C2)s1` (stereo not shown) [Example 33, 2-[(4-fluorobenzyl)(hexahydropyrrolo[1,2-a]pyrazin-2(1H)-ylacetyl)amino]-N-[3-(1H-imidazol-1-yl)propyl]-1,3-thiazole-5-carboxamide], the IC50 in assay [1] came out at 8950 nM; on NAMPT it was 1.22 nM.

In the case of `O=C(NCCCn1ccnc1)c1cnc(N(Cc2ccc(F)cc2)C(=O)CN2CCN(CC3CC3)CC2)s1` [Example 34, 2-[{[4-(cyclopropylmethyl)piperazin-1-yl]acetyl}(4-fluorobenzyl)amino]-N-[3-(1H-imidazol-1-yl)propyl]-1,3-thiazole-5-carboxamide], the IC50 turned out to be 7570 nM in assay [1] and 0.502 nM on NAMPT.

As to `CCOCCN1CCN(CC(=O)N(Cc2ccc(F)cc2)c2ncc(C(=O)NCCCn3ccnc3)s2)CC1` [Example 35, 2-[{[4-(2-ethoxyethyl)piperazin-1-yl]acetyl}(4-fluorobenzyl)amino]-N-[3-(1H-imidazol-1-yl)propyl]-1,3-thiazole-5-carboxamide], the IC50 in assay [1] was > 10000 nM; on NAMPT, 3.18 nM.

For `C=CCN1CCN(CC(=O)N(Cc2ccc(F)cc2)c2ncc(C(=O)NCCCn3ccnc3)s2)CC1` [Example 37, 2-[(4-fluorobenzyl){[4-(prop-2-en-1-yl)piperazin-1-yl]acetyl}amino]-N-[3-(1H-imidazol-1-yl)propyl]-1,3-thiazole-5-carboxamide], the values for the 50% inhibitory concentration (IC50) (in assay [1]; at NAMPT) were 4810 nM and 0.531 nM, respectively.

Turning to `COCCCN1CCN(CC(=O)N(Cc2ccc(F)cc2)c2ncc(C(=O)NCCCn3ccnc3)s2)CC1` [Example 38, 2-[(4-fluorobenzyl){[4-(3-methoxypropyl)piperazin-1-yl]acetyl}amino]-N-[3-(1H-imidazol-1-yl)propyl]-1,3-thiazole-5-carboxamide], the IC50 came out at 2690 nM in assay [1] and 1.35 nM on NAMPT.

On to `CN(C)C1CCN(CC(=O)N(Cc2ccc(F)cc2)c2ncc(C(=O)NCCCn3ccnc3)s2)C1` (stereo not shown) [Example 39, 2-[{[3-(dimethylamino)pyrrolidin-1-yl]acetyl}(4-fluorobenzyl)amino]-N-[3-(1H-imidazol-1-yl)propyl]-1,3-thiazole-5-carboxamide], for which the IC50 in assay [1] was found to be 2390 nM; at NAMPT it was 0.938 nM.

`O=C(NCCCn1ccnc1)c1cnc(N(Cc2ccc(F)cc2)C(=O)CN2CCOCC2)s1` [Example 40, 2-[(4-fluorobenzyl)(morpholin-4-ylacetyl)amino]-N-[3-(1H-imidazol-1-yl)propyl]-1,3-thiazole-5-carboxamide]: the 50% inhibitory concentration (IC50) in assay [1] turned out to be 2200 nM; at NAMPT it was 1.99 nM.

With `O=C(NCCCn1ccnc1)c1cnc(N(Cc2ccc(F)cc2)C(=O)CN2CCCC(O)C2)s1` (stereo not shown) [Example 41, 2-{(4-fluorobenzyl)[(3-hydroxypiperidin-1-yl)acetyl]amino}-N-[3-(1H-imidazol-1-yl)propyl]-1,3-thiazole-5-carboxamide], the half-inhibitory concentration (IC50) in assay [1] worked out at 8500 nM; at NAMPT, 29.7 nM.

Consider `O=C(NCCCn1ccnc1)c1cnc(N(Cc2ccc(F)cc2)C(=O)CN2CCN(CCO)CC2)s1` [Example 42, 2-[(4-fluorobenzyl){[4-(2-hydroxyethyl)piperazin-1-yl]acetyl}amino]-N-[3-(1H-imidazol-1-yl)propyl]-1,3-thiazole-5-carboxamide], for which the figures for the concentration for half-maximal inhibition (IC50) (in assay [1]; at NAMPT) were > 10000 nM and 24.6 nM, respectively.

On to `O=C(NCCCn1ccnc1)c1cnc(N(Cc2ccc(F)cc2)C(=O)CN2CCC3(C2)OCCO3)s1` [Example 43, 2-[(1,4-dioxa-7-azaspiro[4.4]non-7-ylacetyl)(4-fluorobenzyl)amino]-N-[3-(1H-imidazol-1-yl)propyl]-1,3-thiazole-5-carboxamide], for which the values for the IC50 (in assay [1]; at NAMPT) were 8110 nM and 0.709 nM, respectively.

With `O=C(NCCCn1ccnc1)c1cnc(N(Cc2ccc(F)cc2)C(=O)C[n+]2ccccc2)s1` [Example 44, 1-{2-[(4-fluorobenzyl)(5-{[3-(1H-imidazol-1-yl)propyl]carbamoyl}-1,3-thiazol-2-yl)amino]-2-oxoethyl}pyridinium], the IC50 in assay [1] was > 10000 nM; at NAMPT it was 7.77 nM.

For the compound `CC(C)CC(=O)N(CCc1ccc(F)cc1)c1ncc(C(=O)NCCCn2ccnc2)s1` [Example 45, 2-{[2-(4-fluorophenyl)ethyl](3-methylbutanoyl)amino}-N-[3-(1H-imidazol-1-yl)propyl]-1,3-thiazole-5-carboxamide], the values for the 50% inhibitory concentration (IC50) (in assay [1]; at NAMPT) were 611 nM and 0.206 nM, respectively.

For the compound `CC(C)NC(=O)N(Cc1ccc(F)cc1)c1ncc(C(=O)NCCCn2ccnc2)s1` [Example 46, 2-[(4-fluorobenzyl)(propan-2-ylcarbamoyl)amino]-N-[3-(1H-imidazol-1-yl)propyl]-1,3-thiazole-5-carboxamide], the IC50 was found to be 9520 nM in assay [1] and 2.2 nM at NAMPT.

With `CC(C)CC(=O)N(CCc1ccc(C#N)cc1)c1ncc(C(=O)NCCCn2ccnc2)s1` [Example 48, 2-{[2-(4-cyanophenyl)ethyl](3-methylbutanoyl)amino}-N-[3-(1H-imidazol-1-yl)propyl]-1,3-thiazole-5-carboxamide], the half-maximal inhibitory concentration (IC50) in assay [1] amounted to 807 nM; on NAMPT, 0.701 nM.

`N#Cc1ccc(CCN(C(=O)CC2CCOCC2)c2ncc(C(=O)NCCCn3ccnc3)s2)cc1` [Example 49, 2-{[2-(4-cyanophenyl)ethyl](tetrahydro-2H-pyran-4-ylacetyl)amino}-N-[3-(1H-imidazol-1-yl)propyl]-1,3-thiazole-5-carboxamide]: the IC50 in assay [1] was determined as 1690 nM; at NAMPT, 1.07 nM.

Regarding `CC(C)CC(=O)N(Cc1ccc(C#N)cc1)c1ncc(C(=O)NCCCn2ccnc2)s1` [Example 50, 2-[(4-cyanobenzyl)(3-methylbutanoyl)amino]-N-[3-(1H-imidazol-1-yl)propyl]-1,3-thiazole-5-carboxamide], the 50% inhibitory concentration (IC50) in assay [1] came out at 1180 nM; at NAMPT, 2.52 nM.
